Assay results from US10428080B2, “TBK/IKK inhibitor compounds and uses thereof” (Merck Patent GmbH, priority 2015, dated 2019).
Where two headings read alike, the source gives them in different places.

Experiments:
IKKε = target: T1, IKKε (Homo sapiens, UniProt Q14164); assay: IKKe Biochemical Assay; conditions: read-out: IKKε IC50
T1 sequence (Q14164 1-716): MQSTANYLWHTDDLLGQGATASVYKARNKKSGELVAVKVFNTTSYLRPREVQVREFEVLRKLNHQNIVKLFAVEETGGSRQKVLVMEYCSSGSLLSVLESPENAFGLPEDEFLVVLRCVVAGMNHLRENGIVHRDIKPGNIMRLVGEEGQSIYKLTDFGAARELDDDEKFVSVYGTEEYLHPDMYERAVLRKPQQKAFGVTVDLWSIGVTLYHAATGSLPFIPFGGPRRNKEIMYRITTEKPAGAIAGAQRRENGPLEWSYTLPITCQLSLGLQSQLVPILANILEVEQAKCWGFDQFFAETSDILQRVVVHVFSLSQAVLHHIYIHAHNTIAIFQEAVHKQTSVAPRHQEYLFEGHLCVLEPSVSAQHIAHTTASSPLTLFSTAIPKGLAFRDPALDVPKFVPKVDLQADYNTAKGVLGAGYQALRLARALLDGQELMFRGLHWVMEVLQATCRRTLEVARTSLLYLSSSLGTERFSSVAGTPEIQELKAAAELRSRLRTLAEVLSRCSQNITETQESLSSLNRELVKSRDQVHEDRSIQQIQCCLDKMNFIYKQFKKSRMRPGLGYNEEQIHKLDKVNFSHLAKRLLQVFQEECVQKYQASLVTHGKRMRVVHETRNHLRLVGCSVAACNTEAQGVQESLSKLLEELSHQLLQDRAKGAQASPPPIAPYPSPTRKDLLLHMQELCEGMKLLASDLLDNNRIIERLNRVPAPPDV
How it was run: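 Activity was measured as mobility-shift separation of phosphorylated from unphosphorylated substrate on a LabChip EZ Reader. Compound was titrated from 30 uM final in 10 points, 1:4 steps, with 1% DMSO, and enzyme plus substrate reacted 90 min at 25° C before stop buffer. Control wells held 10 uM staurosporine.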

[1] = test system: phosphorylation of the IRF-3 protein in MDA-MB-468 cells; assay: pIRF3 immunocytochemistry cell based assay; conditions: MDA-MB-468 cells, Poly(I:C) stimulation, read-out: pIRF3 IC50
Method: The purpose of the pIRF3 immunocytochemistry cell based assay was to identify small molecules which modulates TBK/IKKe kinase activity through on target substrate phosphorylation of the IRF-3 protein. On the first day of the experiment, MDA-MB-468 cells were plated in 384 well, black, clear-bottom, Poly D lysine coated plates at a density of 5000 cells/well in 45 ul of complete DMEM and allowed to adhere overnight. On the second day compounds were added to cells at a starting concentration of 10 uM with a serial dilution of 3-fold for a total of 10 points. The cells were incubated for 1 hr at 37° C. Cells were then stimulated with Poly(I:C) at a final concentration of 10 ug/ml, and were incubated for 2 hr at 37° C. Following the incubation, media was removed from the wells and the cells were fixed with 4% PFA for 15 min at RT. Cells were washed at least 3 times with PBS, and then permeabilized with ice-cold methanol for 10 min at RT. The washing step was repeated and the cells were then blocked using 10% goat serum/1% BSA, made up in PBS and allowed to incubate at RT for 1 hr. The cells were washed again and then treated with an anti-pIRF3 antibody at 4° C. overnight (1:250 dilution of Abcam ab76493 in PBS containing 1% BSA). On the third day the primary antibody was washed off and pIRF3 was detected by adding the secondary antibody conjugated to AlexaFluor488 (1:200 dilution of secondary antibody in PBS containing 1% BSA) for 1 hr at RT. Cells were washed and then counterstained with PI/RNase staining buffer for 15 min at RT and read on the Acumen Explorer laser scanning cytometer. The percentage of phosphorylation of the IRF-3 protein was calculated using the following algorithm, a modified version of the mean half width intensity (pIRF3 staining)/(PI staining or # of cells)×100%). IC50 curves were generated using the Genedata software.

TBK1 = target: T2, TBK1 (Homo sapiens, UniProt Q9UHD2); assay: TBK Biochemical Assay; conditions: read-out: TBK1 IC50
T2 sequence (Q9UHD2 1-729): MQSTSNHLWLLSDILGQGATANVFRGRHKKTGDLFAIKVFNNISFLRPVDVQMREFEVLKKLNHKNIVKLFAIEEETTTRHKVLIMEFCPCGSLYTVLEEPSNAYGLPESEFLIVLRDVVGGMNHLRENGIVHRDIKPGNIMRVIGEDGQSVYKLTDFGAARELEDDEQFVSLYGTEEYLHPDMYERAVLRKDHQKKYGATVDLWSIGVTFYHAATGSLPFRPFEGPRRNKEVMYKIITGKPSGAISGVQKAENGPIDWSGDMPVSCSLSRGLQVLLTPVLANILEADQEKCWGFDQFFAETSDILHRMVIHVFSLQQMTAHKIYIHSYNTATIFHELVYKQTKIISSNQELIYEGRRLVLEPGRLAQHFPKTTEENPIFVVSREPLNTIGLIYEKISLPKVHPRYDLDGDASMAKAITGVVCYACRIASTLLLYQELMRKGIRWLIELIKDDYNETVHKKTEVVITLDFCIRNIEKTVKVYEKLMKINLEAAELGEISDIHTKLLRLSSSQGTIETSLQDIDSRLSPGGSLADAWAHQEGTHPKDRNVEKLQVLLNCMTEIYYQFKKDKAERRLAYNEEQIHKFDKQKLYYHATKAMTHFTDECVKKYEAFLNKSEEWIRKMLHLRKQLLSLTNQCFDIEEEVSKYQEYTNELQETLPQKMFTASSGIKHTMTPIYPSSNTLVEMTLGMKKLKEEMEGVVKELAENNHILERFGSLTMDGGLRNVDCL
How it was run: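 Caliper LabChip mobility-shift readout of substrate and product after 90 min of TBK1 reaction at 25° C and stop-buffer addition. Compounds tested in 1:4 serial dilution over 10 points from 30 uM final at 1% DMSO; staurosporine 10 uM final defines full inhibition.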

Row | Structure (SMILES) | IC50 (IKKε) [nM] | IC50 ([1]; Homo sapiens) [nM] | IC50 (TBK1) [nM] | IC50 [1] [nM]
1 | COc1cc(C(=O)N(C)C)ccc1-c1cc2nccc(-c3ccc(OC4CCOC[C@@H]4F)c(C#N)c3)c2o1 (mixture of isomers) [Compound 42, 4-{7-[3-Cyano-4-((S)-3-fluoro-tetrahydro-pyran-4-yloxy)-phenyl]-furo[3,2-b]pyridin-2-yl}-3-methoxy-N,N-dimethyl-benzamide] | < 100 | < 100 | < 100 | 
2 | N#Cc1cc(-c2ccnc3cc(-c4ccc(C(=O)NC5CNCCC5F)cc4)oc23)ccc1OC1CCOCC1 (racemic) [Compound 131, 4-{7-[3-Cyano-4-(tetrahydro-pyran-4-yloxy)-phenyl]-furo[3,2-b]pyridin-2-yl}-N-(4-fluoro-piperidin-3-yl)-benzamide] | < 100 | 100 to 1000 | < 100 | 
3 | COc1cc(C(=O)N[C@H]2[C@@H]3C[C@H]2CN(C)C3)ccc1-c1cc2nccc(-c3ccc(OC4CCOCC4)c(C#N)c3)c2o1 (single isomer, unassigned) [Compound 365] | < 100 | 100 to 1000 | < 100 | 
4 | COc1cc(C(=O)N[C@H]2[C@@H]3C[C@H]2CN(C)C3)ccc1-c1cc2nccc(-c3ccc(OC4CCOCC4)c(C#N)c3)c2o1 (single isomer, unassigned) [Compound 366] | < 100 |  | < 100 | 100 to 1000
5 | COc1cc(C(=O)N[C@H]2C[C@H](CO)N(C)C2)ccc1-c1cc2nccc(-c3ccc(OC4CCOCC4)c(C#N)c3)c2o1 (stereo in doubt) [Compound 350, 4-[7-[3-cyano-4-(oxan-4-yloxy)phenyl]furo[3,2-b]pyridin-2-yl]-N-[(3S,5R)-5-(hydroxymethyl)-1-methylpyrrolidin-3-yl]-3-methoxybenzamide] | < 100 | 100 to 1000 | < 100 | 
6 | COc1cc(C(=O)N2CCCCC2)ncc1-c1cc2nccc(-c3ccc(N4CCC(F)C4)c(C#N)c3)c2o1 (stereo in doubt) [Compound 384, 2-((S)-3-Fluoro-pyrrolidin-1-yl)-5-{2-[4-methoxy-6-(piperidine-1-carbonyl)-pyridin-3-yl]-furo[3,2-b]pyridin-7-yl}-benzonitrile] | < 100 | < 100 | < 100 | 
7 | COc1cc(C(=O)N2CCCCC2)ncc1-c1cc2nccc(-c3ccc(N4CC[C@@H](F)C4)c(C#N)c3)c2o1 (stereo in doubt) [Compound 385] | < 100 |  | < 100 | < 100
8 | COc1cc(C(=O)N(C)C)ncc1-c1cc2nccc(-c3ccc(N4CCC(F)C4)c(C#N)c3)c2o1 (stereo in doubt) [Compound 389, 5-{7-[3-Cyano-4-((S)-3-fluoro-pyrrolidin-1-yl)-phenyl]-furo[3,2-b]pyridin-2-yl}-4-methoxy-pyridine-2-carboxylic acid dimethylamide] | < 100 | 100 to 1000 | < 100 | 
9 | COc1cc(C(=O)N(C)C)ncc1-c1cc2nccc(-c3ccc(N4CCC(F)C4)c(C#N)c3)c2o1 (stereo in doubt) [Compound 390, 5-{7-[3-Cyano-4-((R)-3-fluoro-pyrrolidin-1-yl)-phenyl]-fluro[3,2-b]pyridin-2-yl}-4-methoxy-pyridine-2-carboxylic acid dimethylamide] | < 100 | 100 to 1000 | < 100 | 
10 | COc1cc(C(=O)NC2C3COCC32)cnc1-c1cc2nccc(-c3ccc(N4CC[C@H](F)C4)c(C#N)c3)c2o1 (stereo in doubt) [Compound 465, 6-[7-[3-cyano-4-(3-fluoropyrrolidin-1-yl)phenyl]furo[3,2-b]pyridin-2-yl]-5-methoxy-N-[3-oxabicyclo[3.1.0]hexan-6-yl]pyridine-3-carboxamide] | < 100 | 100 to 1000 | < 100 | 
11 | COc1cc(C(=O)N2C[C@H]3C[C@@H]2CN3C)ccc1-c1cc2nccc(-c3ccc(OC4CCOCC4)c(C#N)c3)c2o1 (stereo in doubt) [Compound 507] | < 100 | < 100 | < 100 | 
12 | COc1cc(C(=O)N2CC3CC2CO3)ccc1-c1cc2nccc(-c3ccc(OC4CCOCC4)c(C#N)c3)c2o1 (centres unmarked) [Compound 1, 5-{2-[2-Methoxy-4-(2-oxa-5-aza-bicyclo[2.2.1]heptane-5-carbonyl)-phenyl]-furo[3,2-b]pyridin-7-yl}-2-(tetrahydro-pyran-4-yloxy)-benzonitrile] | < 100 | < 100 | < 100 | 
13 | COc1cc(C(=O)N2CCC3(CCO3)CC2)ccc1-c1cc2nccc(-c3ccc(OC4CCOCC4)c(C#N)c3)c2o1 [Compound 3, 5-{2-[2-Methoxy-4-(1-oxa-7-aza-spiro[3.5]nonane-7-carbonyl)-phenyl]-furo[3,2-b]pyridin-7-yl}-2-(tetrahydro-pyran-4-yloxy)-benzonitrile] | < 100 | 100 to 1000 | < 100 | 
14 | COc1cc(C(=O)N2CCC(CO)CC2)ccc1-c1cc2nccc(-c3ccc(OC4CCOCC4)c(C#N)c3)c2o1 [Compound 5, 5-{2-[4-(4-Hydroxymethyl-piperidine-1-carbonyl)-2-methoxy-phenyl]-furo[3,2-b]pyridin-7-yl}-2-(tetrahydro-pyran-4-yloxy)-benzonitrile] | < 100 | < 100 | < 100 | 
15 | COc1cc(C(=O)N(C)C)ccc1-c1cc2nccc(-c3ccc(NC4CCOC4)c(C#N)c3)c2o1 (centres unmarked) [Compound 7] | < 100 | 100 to 1000 | < 100 | 
16 | COc1cc(C(=O)N2CC(N3CCOCC3)C2)ccc1-c1cc2nccc(-c3ccc(OC4CCOCC4)c(C#N)c3)c2o1 [Compound 8] | < 100 | < 100 | < 100 | 
17 | COc1cc(C(=O)N(C)C)cnc1-c1cc2ncc(OC)c(-c3ccc(OC4CCOCC4)c(C#N)c3)c2o1 [Compound 339, 6-[7-[3-cyano-4-(oxan-4-yloxy)phenyl]-6-methoxyfuro[3,2-b]pyridin-2-yl]-5-methoxy-N,N-dimethylpyridine-3-carboxamide] |  | < 100 | 100 to 1000 | 
